# Measurements taken from the supplement of paper PMC10307832.
# Experiments:
# Assay in all cases: relative viability (nuclei count vs DMSO), 5 days (fraction); higher = more cells survive
# [1] = compound: CN[C@@H]1C[C@H]2O[C@@](C)([C@@H]1OC)n1c3ccccc3c3c4c(c5c6ccccc6n2c5c31)C(=O)NC4 [Staurosporine] + CS(=O)(=O)CCNCc1ccc(-c2ccc3ncnc(Nc4ccc(OCc5cccc(F)c5)c(Cl)c4)c3c2)o1 [Lapatinib] (partner 2 µM)
# Outline: (§1)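 Lung cancer cell lines were seeded in 1536-well plates and dosed by pin tool the next day, with either a single drug or a fixed anchor-drug dose combined with five library-drug doses (not always all listed) spaced in √10 steps. Five days later, one step fixed the cells and stained their nuclei (final 0.05% Triton X-100, 1% formaldehyde, 1 ug/ml Hoechst), and nuclei were counted on 4× images. Relative viability is the nuclei count in treated wells divided by the count in vehicle wells, and each value is the median of duplicate plates.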
# [2] = compound: CN[C@@H]1C[C@H]2O[C@@](C)([C@@H]1OC)n1c3ccccc3c3c4c(c5c6ccccc6n2c5c31)C(=O)NC4 [Staurosporine] + C[C@@H](Oc1cc(-c2cnn(C3CCNCC3)c2)cnc1N)c1c(Cl)ccc(F)c1Cl [Crizotinib] (partner 1 µM)
# Outline: as §1
# [3] = compound: O=c1[nH]cc(F)c(=O)[nH]1 [5-Fluorouracil] + Cc1nc(Nc2ncc(C(=O)Nc3c(C)cccc3Cl)s2)cc(N2CCN(CCO)CC2)n1 [Dasatinib] (partner 0.075 µM)
# Outline: as §1
Cell Line,relative viability ([1]; first compound 0.005 µM),relative viability ([1]; first compound 0.01581 µM),relative viability ([1]; first compound 0.05 µM),relative viability ([1]; first compound 0.1581 µM),relative viability ([1]; first compound 0.5 µM),relative viability ([2]; first compound 0.005 µM),relative viability ([2]; first compound 0.01581 µM),relative viability ([2]; first compound 0.05 µM),relative viability ([2]; first compound 0.1581 µM),relative viability ([2]; first compound 0.5 µM),relative viability ([3]; first compound 0.02 µM),relative viability ([3]; first compound 0.2 µM),relative viability ([3]; first compound 0.6325 µM),relative viability ([3]; first compound 2 µM)
PC-14,0.293,0.247,0.0956,0.0886,0.0786,0.683,0.714,0.141,0.0852,0.0777,0.247,0.268,0.274,0.188
HOP-62,1.27,0.293,0.103,0.0855,0.0849,1.02,0.741,0.134,0.144,0.0781,0.681,0.69,0.59,0.558
NCI-H322M,0.746,0.438,0.484,0.402,0.278,0.98,0.666,0.654,0.558,0.433,0.279,0.243,0.242,0.234
NCI-H661,0.472,0.395,0.266,0.235,0.236,1.03,0.9,0.81,0.501,0.415,0.962,1.01,0.81,0.851
NCI-H727,0.666,0.324,0.307,0.388,0.181,0.3,0.322,0.228,0.181,0.164,0.38,0.395,0.378,0.375
NCI-H1734,0.958,0.322,0.31,0.121,0.136,0.627,0.4,0.279,0.165,0.132,0.41,0.521,0.407,0.291
NCI-H596,1.08,0.749,0.419,0.181,0.157,1.16,0.959,0.447,0.189,0.156,0.717,0.605,0.48,0.366
LCLC-97TM1,0.864,0.168,0.285,0.174,0.381,0.277,0.24,0.234,0.296,0.257,0.79,0.978,0.837,0.745
COR-L23,0.695,0.31,0.241,0.0931,0.0662,0.369,0.303,0.118,0.0765,0.0558,0.529,0.467,0.254,0.186
NCI-H1355,0.96,0.557,0.272,0.188,0.193,0.834,0.727,0.366,0.258,0.234,0.824,0.58,0.283,0.234
EPLC-272H,0.787,0.194,0.513,0.175,0.149,0.864,0.559,0.459,0.155,0.124,0.271,0.304,0.234,0.129
NCI-H1651,0.708,0.413,0.356,0.107,0.0625,0.945,0.765,0.575,0.549,0.385,0.438,0.363,0.276,0.401
SW 1573,1.01,1.07,0.417,0.355,0.186,0.678,0.583,0.186,0.134,0.119,0.58,0.402,0.472,0.259
NCI-H460,1.08,0.389,0.455,0.0071,0.0093,0.708,0.677,0.0267,0.0065,0.0073,0.584,0.488,0.159,0.0618
SK-LU-1,0.611,0.266,0.153,0.162,0.16,0.372,0.198,0.19,0.169,0.161,0.189,0.182,0.195,0.166
LOU-NH91,0.861,0.582,0.539,0.275,0.292,0.721,0.594,0.493,0.413,0.325,0.566,0.598,0.501,0.304
RERF-LC-KJ,0.878,0.821,0.734,0.424,0.245,0.823,0.717,0.516,0.223,0.244,0.908,1.01,0.777,0.571
NCI-H2126,0.805,0.571,0.505,0.336,0.356,0.994,0.8,0.635,0.486,0.407,0.552,0.315,0.244,0.212
LU99A,0.669,0.313,0.282,0.171,0.133,0.391,0.308,0.253,0.157,0.118,0.575,0.655,0.567,0.4
BEN,0.656,0.449,0.381,0.198,0.207,1.22,0.754,0.473,0.379,0.266,0.318,0.318,0.284,0.277
NCI-H1666,0.573,0.45,0.425,0.267,0.208,0.536,0.528,0.418,0.236,0.2,0.848,0.555,0.4,0.391
NCI-H1993,0.775,0.536,0.639,0.485,0.409,0.861,0.78,0.527,0.487,0.298,0.581,0.566,0.503,0.487
NCI-H520,0.935,0.595,0.514,0.178,0.13,0.711,0.448,0.279,0.188,0.11,0.152,0.234,0.174,0.142
HCC-78,0.238,0.22,0.38,0.263,0.232,0.358,0.236,0.244,0.261,0.239,0.34,0.427,0.322,0.254
NCI-H1975,0.572,0.232,0.227,0.13,0.0954,0.369,0.276,0.212,0.121,0.115,0.363,0.387,0.307,0.231
